Assay [1] addresses T1, American firefly luciferase (Photinus pyralis, UniProt P08659).
T1 construct: recombinant luciferase
Description: stopped-flow inhibition of initial light output. Type of assay: biochemical.

For assay [2], the target named is T2, Japanese firefly luciferase (Nipponoluciola cruciata, UniProt P13129).
T2 construct: recombinant luciferase
T2 sequence (P13129 1-548): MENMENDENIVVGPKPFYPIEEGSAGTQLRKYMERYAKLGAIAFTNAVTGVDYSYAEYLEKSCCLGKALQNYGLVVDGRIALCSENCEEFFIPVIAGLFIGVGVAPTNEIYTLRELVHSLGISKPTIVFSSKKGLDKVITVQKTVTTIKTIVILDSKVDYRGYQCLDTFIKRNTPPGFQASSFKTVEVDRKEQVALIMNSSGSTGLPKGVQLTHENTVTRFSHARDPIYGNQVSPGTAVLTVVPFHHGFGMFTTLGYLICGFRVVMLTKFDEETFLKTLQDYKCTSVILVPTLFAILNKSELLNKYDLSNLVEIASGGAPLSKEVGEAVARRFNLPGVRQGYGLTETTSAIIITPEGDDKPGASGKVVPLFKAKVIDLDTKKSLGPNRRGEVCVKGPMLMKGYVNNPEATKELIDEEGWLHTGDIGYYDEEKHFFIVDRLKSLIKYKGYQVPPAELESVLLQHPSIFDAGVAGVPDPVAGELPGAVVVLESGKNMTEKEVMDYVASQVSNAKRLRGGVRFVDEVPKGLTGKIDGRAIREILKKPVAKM
Briefly: [3H] photoincorporation and time-resolved photolabeling with LC-MSMS. Type of assay: binding.

The target of assay [3] is T1, American firefly luciferase. Description: stopped-flow inhibition of initial ATP-induced light output; photolabeling with LC-MSMS also done. Type of assay: biochemical.
The target is the same in assay [4]. Briefly: equilibrium photolabeling with LC-MSMS. Type of assay: binding.

The record followed here is PMC3260189, “The Location and Nature of General Anesthetic Binding Sites on the Active Conformation of Firefly Luciferase; A Time Resolved Photolabeling Study” (PLoS ONE, 2012).

T1 sequence (P08659 whole entry): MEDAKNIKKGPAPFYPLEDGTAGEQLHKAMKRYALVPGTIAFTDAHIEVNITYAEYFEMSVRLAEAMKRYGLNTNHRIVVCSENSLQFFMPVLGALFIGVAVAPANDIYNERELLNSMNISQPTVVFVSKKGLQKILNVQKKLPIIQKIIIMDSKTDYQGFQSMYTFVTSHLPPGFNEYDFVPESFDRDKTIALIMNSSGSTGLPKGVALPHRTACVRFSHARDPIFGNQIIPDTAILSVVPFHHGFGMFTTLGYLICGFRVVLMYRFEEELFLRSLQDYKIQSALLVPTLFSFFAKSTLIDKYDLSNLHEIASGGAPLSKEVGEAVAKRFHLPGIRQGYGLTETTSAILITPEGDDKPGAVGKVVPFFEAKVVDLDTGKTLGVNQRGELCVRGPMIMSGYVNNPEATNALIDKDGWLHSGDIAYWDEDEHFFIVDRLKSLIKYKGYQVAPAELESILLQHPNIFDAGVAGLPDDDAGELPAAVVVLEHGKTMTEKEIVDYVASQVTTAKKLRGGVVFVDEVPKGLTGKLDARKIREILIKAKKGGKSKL

The term IC50 denotes the concentration that inhibits the measured activity by half. A lower IC50 goes with greater potency in that assay. Take `CCCCCCCCO` [1-octanol]: in assay [1], the IC50 was ~ 225 µM.

For orientation: Kd means the constant that tells how readily two partners part at equilibrium. In the case of `CCCCCC1(CCO)N=N1` [3-azioctanol, 3-(2-hydroxyethyl)-3-n-pentyldiazirine], the Kd in assay [2] was > 1000 µM. In assay [3], this compound returned an IC50 of 200 ± 46 µM.

Turning to `CC1(CCCCCCO)N=N1` [7-azioctanol], in assay [4], the “equilibrium photolabeling with LC-MSMS” value was “photolabeled the American firefly luciferase at equilibrium with the azialkanols, and found the labeling pattern to be identical”.
